The source of these data is patent EP0195097A1, “Arachidonic acid analogues, processes for their preparation and their use in medicine” (BEECHAM GROUP PLC, priority 1985, dated 1986).

Each structure is given as a SMILES string.

One assay concerns the target T1, 5-Lipoxygenase enzyme (Rattus norvegicus, UniProt P12527).
T1 construct: 5-Lipoxygenase enzyme was prepared as a 10,000g supernatant from RBL-1 cells; endogenous in cells; host or cells: RBL-1 cells (10,000g supernatant)
T1 sequence (P12527 1-673): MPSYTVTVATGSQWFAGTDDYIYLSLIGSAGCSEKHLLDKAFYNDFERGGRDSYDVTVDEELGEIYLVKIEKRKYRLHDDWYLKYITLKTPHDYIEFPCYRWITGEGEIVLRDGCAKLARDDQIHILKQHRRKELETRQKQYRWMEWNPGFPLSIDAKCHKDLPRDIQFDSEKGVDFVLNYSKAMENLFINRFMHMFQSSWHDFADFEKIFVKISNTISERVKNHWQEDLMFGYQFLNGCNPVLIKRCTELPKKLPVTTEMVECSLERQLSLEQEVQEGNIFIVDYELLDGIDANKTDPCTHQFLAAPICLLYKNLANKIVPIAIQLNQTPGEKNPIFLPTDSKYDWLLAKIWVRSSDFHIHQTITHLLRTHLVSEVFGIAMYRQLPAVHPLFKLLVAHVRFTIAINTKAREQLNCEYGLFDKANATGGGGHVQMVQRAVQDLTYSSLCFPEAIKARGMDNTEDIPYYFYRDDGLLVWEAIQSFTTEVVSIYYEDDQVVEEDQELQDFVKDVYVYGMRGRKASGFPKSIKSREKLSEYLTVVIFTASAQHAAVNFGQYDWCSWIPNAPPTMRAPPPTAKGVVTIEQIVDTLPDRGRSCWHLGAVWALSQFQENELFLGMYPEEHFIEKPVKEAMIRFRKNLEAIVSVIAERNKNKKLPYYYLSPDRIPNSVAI
Briefly: RBL-1 5-lipoxygenase screen. The format is biochemical. The note with it: 10,000g supernatant from RBL-1 cells; for inhibition at 50 µM: 50µM compound (cells marked *, footnote: inhibition at 50µM); for inhibition at 20 µM: 20µM compound, decrease in formation of 5-HETE and 5,12-diHETE relative to control. On the procedure:
1) RBL-1 5-LIPOXYGENASE SCREEN
5-Lipoxygenase enzyme was prepared as a 10,000g supernatant from RBL-1 cells by the method of Jakschik (Jakschik, B.A., F.F. Sun, L.M.Lee, and M.M. Steinhoff, 1980, Biochem. Biophys. Res.Comm. 95, 103). The 10,000g supernatant was diluted with homogenization buffer to the equivalent of 1.5 - 2.5 x 10^7 cells. ml.-l and made 2mM with respect to CaCl2. Aliquots of 0.5ml were then dispensed into tubes, and incubated at 29 °C with 5pl ethanol or compound in ethanol at the desired concentration for 2min. Then [1-^14C] arachidonic acid was added in buffer to give a final concentration of 6.3µM and 0.2pCi per incubation, and the reaction continued at 29 °C for 2min. The reaction was terminated by adding lml of acetone and cooling on ice, 0.5ml of ice-cold saline and 100pl of 2M formic acid were added, and the mixture was extracted with 2 x 2ml of chloroform. The extract was stored under N2 at -20 °C until analysis by chromatography. Activity was measured as the percentage of total radioactivity found in 5-HETE and 5,12-diHETE, and inhibition calculated as the decrease in formation of the sum of these two species in compound-treated incubates relative to control incubations.

A further assay concerns the target T2, cyclo-oxygenase (Bos taurus, UniProt O62664).
T2 construct: comprising 0.96mg lyophilised bovine seminal vesicle microsomes; from tissue; host or cells: bovine seminal vesicle microsomes (lyophilised)
T2 sequence (O62664 25-600): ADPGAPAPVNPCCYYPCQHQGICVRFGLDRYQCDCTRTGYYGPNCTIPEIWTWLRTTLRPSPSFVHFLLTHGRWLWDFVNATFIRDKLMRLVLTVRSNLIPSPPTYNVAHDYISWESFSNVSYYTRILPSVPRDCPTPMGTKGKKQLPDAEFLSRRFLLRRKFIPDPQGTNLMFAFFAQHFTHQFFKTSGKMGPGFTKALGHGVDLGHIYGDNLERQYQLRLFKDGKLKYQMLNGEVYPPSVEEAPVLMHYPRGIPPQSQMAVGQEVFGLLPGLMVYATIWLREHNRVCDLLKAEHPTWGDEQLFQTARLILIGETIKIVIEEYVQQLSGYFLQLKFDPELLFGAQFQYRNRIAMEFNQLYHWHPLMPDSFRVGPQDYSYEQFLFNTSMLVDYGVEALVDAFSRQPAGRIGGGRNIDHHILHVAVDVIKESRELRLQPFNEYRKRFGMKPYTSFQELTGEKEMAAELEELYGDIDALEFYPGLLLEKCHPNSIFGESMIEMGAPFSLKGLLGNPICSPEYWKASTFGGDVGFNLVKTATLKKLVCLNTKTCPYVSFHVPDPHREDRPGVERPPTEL
Briefly: Cyclo-oxygenase screen. Conditions: 50µM compound; bovine seminal vesicle microsomes; decrease in prostaglandin formation. The class given is biochemical. On the procedure:
2) Cyclo-oxygenase Screen
Compounds were preincubated with the incubation constitutents for 5 min at 37 °C before the reaction was started by the addition of the arachidonic acid. The reaction was continued at 37 °C for 2 min, then stopped by placing the incubations on ice and the addition of 1.2ml 0.2M citric acid. Unmetabolised substrate and prostaglandin products were extracted in ethyl acetate (2 x 4ml), the combined extracts washed with 0.8ml water, and separated by thin-layer chromatography (Kieselgel GF254 plates in ethyl acetate:acetone:glacial acetic acid, 90:10:1, v/v). Recovery was 65-80%. The regions on the thin-layer chromatography plate that chromatographed with authentic arachidonic acid or prostaglandins E2 and F2a (Rf's 0.70, 0.28 and 0.16 respectively) were scraped and the radioactivity in each determined by liquid scintillation counting with a correction for quenching being made by the external standard-channels ratio method. Inhibition of cyclo-oxygenase activity was calculated from the decrease in prostaglandin formation. Each compound concentration was tested in triplicate and the 50% inhibitory concentration, if determined, was calculated by linear regression from the inhibitory data at, at least three different compound concentrations.

With `CCCCCCCCCCCC#Cc1ccccc1C=C(C(=O)O)C(=O)OCC` [Example 24], the inhibition at 50 µM against 5-Lipoxygenase enzyme amounted to 60%; against cyclo-oxygenase, 70%.
On to `CCCCCCCCCCCC#Cc1ccccc1C=C(C(=O)O)C(=O)O` [Example 25], for which the inhibition at 50 µM at 5-Lipoxygenase enzyme came out at 55%; against cyclo-oxygenase it was 59%.
For `CCCCCCCCCCCC#Cc1ccc(C=C(C(=O)O)C(=O)O)cc1` [Example 27], testing at 50 µM at cyclo-oxygenase gave an inhibition of 59%.
The compound `CCCCCCCCCCCC#Cc1ccccc1CC(C(=O)O)C(=O)O` [Example 28] showed an inhibition at 20 µM against 5-Lipoxygenase enzyme of 63%. The same compound displayed an inhibition at 50 µM at cyclo-oxygenase of 76%.
Consider `CCCCCCCCCCC/C=C\c1ccccc1C=C(C(=O)O)C(=O)O` [Example 29], for which 20 µM produced 67% inhibition on 5-Lipoxygenase enzyme.
The same measure, in the same setting: the figure for `CCCCCCC#Cc1ccc(C=C(C(=O)O)C(=O)OC)cc1` [Example 49] is 15%; for `CCCCCCC#Cc1ccc(C=C(C(=O)O)C(=O)O)cc1` [Example 50] it is 16%; for `CCCCCCCCCCCC#Cc1cccc(C=C(C(=O)O)C(=O)O)c1` [Example 51] it is 25%.
`CCCCCCCCCCCC#Cc1cccc(CC(C(=O)O)C(=O)O)c1` [Example 52] displayed an inhibition at 20 µM on 5-Lipoxygenase enzyme of 51%.
The same measure, in the same setting: then `CCCCCCC#Cc1ccccc1OCCCC(C(=O)O)C(=O)OCC` (centres unmarked) [Example 55], with 63%.
Consider `CCCCCCC#Cc1cccc(OCCCC(C(=O)O)C(=O)OCC)c1` (centres unmarked) [Example 56], for which the inhibition at 50 µM against 5-Lipoxygenase enzyme worked out at 52%.
`CCCCCCC#Cc1ccccc1OCCCC(C(=O)O)C(=O)O` [Example 57]: testing at 20 µM against 5-Lipoxygenase enzyme gave an inhibition of 54%.
For the compound `CCCCCCC#Cc1cccc(OCCCC(C(=O)O)C(=O)O)c1` [Example 58], the inhibition at 50 µM against 5-Lipoxygenase enzyme was determined as 45%; against cyclo-oxygenase, 38%.
On 5-Lipoxygenase enzyme, `CCCCCCCCCCC/C=C\c1cccc(C=C(C(=O)O)C(=O)O)c1` [Example 63] came in with an inhibition at 20 µM of 82%.
`CCCCCC/C=C\c1ccc(C=C(C(=O)O)C(=O)O)cc1` [Example 64] displayed an inhibition at 20 µM against 5-Lipoxygenase enzyme of 49%.
Turning to `CCCCCCCCCCC/C=C\c1cccc(CC(C(=O)O)C(=O)O)c1` [Example 66], on 5-Lipoxygenase enzyme, 20 µM produced 84% inhibition.
With `CCCCCC/C=C\c1cccc(OCCCC(C(=O)O)C(=O)OCC)c1` (centres unmarked) [Example 68], on 5-Lipoxygenase enzyme, the inhibition at 20 µM turned out to be 62.5%. The compound also showed an inhibition at 50 µM against cyclo-oxygenase of 40%.
As for `CCCCCC/C=C\c1cccc(OCCCC(C(=O)O)C(=O)O)c1` [Example 69], the inhibition at 20 µM against 5-Lipoxygenase enzyme turned out to be 44%.
